In one assay the test system is cancer cell lines. Put plainly: Cell viability analysis (WST-1) on cancer cell lines. It is filed as cell-based, human. Particulars: drug 10 μM, 72 hours, WST-1; Table 3.
The test system of assay [1] is HI650 (Lung Adenocarcinoma). Put plainly: Cell viability analysis, lung cancer HI650. It is filed as cell-based, human. Particulars: Homo sapiens, NCI-H1650, 72 h.
Assay [2] deals with A549 (Lung Adenocarcinoma). In words: Cell viability analysis, lung cancer A549. It is filed as cell-based, human. Particulars: Homo sapiens, A549, 72 h.
Assay [3] has as its system AGS (Gastric Adenocarcinoma). Put plainly: Cell viability analysis, gastric cancer AGS. It is filed as cell-based, human. Particulars: Homo sapiens, 72 h.
Assay [4] deals with MKN-45 (Gastric Adenocarcinoma). Put plainly: Cell viability analysis, gastric cancer MKN-45. It is filed as cell-based, human. Particulars: Homo sapiens, MKN-45, 72 h.
Assay [5] has as its system HepG2 (Hepatocellular Carcinoma). Put plainly: Cell viability analysis, hepatic cancer HepG2. Particulars: Homo sapiens, HepG2, 72 h. It is filed as cell-based, human.
Assay [6] relates to LoVo (Colorectal Adenocarcinoma). Put plainly: Cell viability analysis, colon cancer LoVo. It is filed as cell-based, human. Particulars: Homo sapiens, LoVo, 72 h.
Assay [7] relates to A375 (Amelanotic Melanoma). In words: Cell viability analysis, skin cancer A375. Particulars: Homo sapiens, A-375, 72 h. It is filed as cell-based, human.
The subject of assay [8] is HeLa (Cervix Adenocarcinoma). Put plainly: Cell viability analysis, cervical cancer HeLa. Particulars: Homo sapiens, HeLa, 72 h. It is filed as cell-based, human.
Assay [9] has as its system PC3 (p53−) (Prostate Adenocarcinoma). Put plainly: Cell viability analysis, prostate cancer PC3. In kind it is cell-based, human. Particulars: Homo sapiens, 72 h.
Assay [10] has as its system TSGH-8301 (Urinary Bladder Carcinoma). In words: Cell viability analysis, bladder cancer TSGH-8301. It is filed as cell-based, human. Particulars: Homo sapiens, 72 h.
For assay [11], the system named is MCF7 (Mammary Gland, Adenocarcinoma). In words: Cell viability analysis, breast cancer MCF7. In kind it is cell-based, human. Particulars: Homo sapiens, MCF7, 72 h.
In assay [12] the test system is HL-60 (Acute Promyelocytic Leukemia). In words: Cell viability analysis, leukemia HL-60. Particulars: Homo sapiens, HL-60, 72 h. In kind it is cell-based, human.
The test system of assay [13] is HCT116 (p53+) (Colorectal Carcinoma). Put plainly: cells. Particulars: Homo sapiens, HCT-116, 72 h, read-out: cell viability (survival rate), HCT116.
The mark [14] stands for this setting: read-out: cell viability (survival rate), H1650.
Where [15] appears, read: read-out: cell viability (survival rate), A549.
Setting [16] is: read-out: cell viability (survival rate), AGS.
[17] abbreviates: read-out: cell viability (survival rate), MKN-45.
The mark [18] stands for this setting: read-out: cell viability (survival rate), LoVo.
[19] abbreviates: read-out: cell viability (survival rate), A375.
Where [20] appears, read: read-out: cell viability (survival rate), HeLa.
The mark [21] stands for this setting: read-out: cell viability (survival rate), PC3.
The mark [22] stands for this setting: read-out: cell viability (survival rate), TSGH.
Setting [23] is: read-out: cell viability (survival rate), MCF7.
The mark [24] stands for this setting: read-out: cell viability (survival rate), HL-60.
[25] abbreviates: drug 10 μM, 72 hours, WST-1, OD450 nm, read-out: cell viability (survival rate), H1650.
Setting [26] is: drug 10 μM, 72 hours, WST-1, OD450 nm, read-out: cell viability (survival rate), A549.
Setting [27] is: drug 10 μM, 72 hours, WST-1, OD450 nm, read-out: cell viability (survival rate), AGS.
Where [28] appears, read: drug 10 μM, 72 hours, WST-1, OD450 nm, read-out: cell viability (survival rate), MKN-45.
Setting [29] is: drug 10 μM, 72 hours, WST-1, OD450 nm, read-out: cell viability (survival rate), HepG2.
The mark [30] stands for this setting: read-out: cell viability (survival rate), LoVo, drug 10 μM, 72 hours, WST-1, OD450 nm.
The mark [31] stands for this setting: drug 10 μM, 72 hours, WST-1, OD450 nm, read-out: cell viability (survival rate), A375.
Where [32] appears, read: drug 10 μM, 72 hours, WST-1, OD450 nm, read-out: cell viability (survival rate), HeLa.
Where [33] appears, read: drug 10 μM, 72 hours, WST-1, OD450 nm, read-out: cell viability (survival rate), PC3.
Setting [34] is: drug 10 μM, 72 hours, WST-1, OD450 nm, read-out: cell viability (survival rate), TSGH.
Setting [35] is: drug 10 μM, 72 hours, WST-1, OD450 nm, read-out: cell viability (survival rate), MCF7.
[36] abbreviates: drug 10 μM, 72 hours, WST-1, OD450 nm, read-out: cell viability (survival rate), HL-60.
Setting [37] is: read-out: cell viability (survival rate), H1650, drug 10 μM, 72 hours, WST-1, OD450 nm.
Where [38] appears, read: read-out: cell viability (survival rate), A549, drug 10 μM, 72 hours, WST-1, OD450 nm.
Where [39] appears, read: read-out: cell viability (survival rate), AGS, drug 10 μM, 72 hours, WST-1, OD450 nm.
Where [40] appears, read: read-out: cell viability (survival rate), MKN-45, drug 10 μM, 72 hours, WST-1, OD450 nm.
The mark [41] stands for this setting: read-out: cell viability (survival rate), HepG2, drug 10 μM, 72 hours, WST-1, OD450 nm.
[42] abbreviates: read-out: cell viability (survival rate), A375, drug 10 μM, 72 hours, WST-1, OD450 nm.
Where [43] appears, read: read-out: cell viability (survival rate), HeLa, drug 10 μM, 72 hours, WST-1, OD450 nm.
Where [44] appears, read: read-out: cell viability (survival rate), PC3, drug 10 μM, 72 hours, WST-1, OD450 nm.
Where [45] appears, read: read-out: cell viability (survival rate), TSGH, drug 10 μM, 72 hours, WST-1, OD450 nm.
The mark [46] stands for this setting: read-out: cell viability (survival rate), MCF7, drug 10 μM, 72 hours, WST-1, OD450 nm.
Setting [47] is: read-out: cell viability (survival rate), HL-60, drug 10 μM, 72 hours, WST-1, OD450 nm.

Structures can show the parent of a compound that is named as a salt. Where two headings read alike, the source gives them in different places.

In the case of `O=C([O-])c1ccccc1O.[Na+]` [Sodium salicylate], in the assay with cancer cell lines, the “inhibition effect on different cancer cell lines” value is given as “significant inhibition effect”. For the same compound, the viability at 10 µM in assay [1] (setting [14]) is 90.1%; in assay [2] (setting [15]) it was 107%; in [3] (setting [16]) it was 82.1%; in assay [4] (setting [17]), 77.9%; in assay [5] (read-out: cell viability (survival rate), HepG2) it was 84.3%; in assay [6] (setting [18]), 102%. The viability at 10 µM was found to be 74.9% in assay [7] (setting [19]); 94.4% in assay [8] (setting [20]); 87.9% in [9] (setting [21]); 137% in assay [10] (setting [22]); 89% in [11] (setting [23]); 94.7% in assay [12] (setting [24]). Further, the viability at 10 µM in assay [13] was 73.5%.
Regarding `NC[C@H]1O[C@H](O[C@H]2[C@H](O)[C@@H](O[C@H]3O[C@H](CO)[C@@H](O)[C@H](N)[C@H]3O)[C@H](N)C[C@@H]2N)[C@H](N)[C@@H](O)[C@@H]1O` [Bekanamycin], in the assay on cancer cell lines, the “inhibition effect on different cancer cell lines” value is on record as “significant inhibition effect”. Besides, the viability at 10 µM in assay [1] (setting [25]) stood at 80.8%; in assay [2] (setting [26]) it was 58.3%; in assay [3] (setting [27]) it was 81.7%; in assay [4] (setting [28]), 74.5%; in assay [5] (setting [29]), 85.3%; in assay [6] (setting [30]) it was 96.9%. For the same compound, the viability at 10 µM in assay [7] (setting [31]) was found to be 55.5%; in assay [8] (setting [32]), 95.2%; in assay [9] (setting [33]), 76.3%; in assay [10] (setting [34]) it was 76.2%; in assay [11] (setting [35]), 57.5%; in assay [12] (setting [36]), 96.8%. The viability at 10 µM in [13] amounted to 73.6%.
Turning to `CCn1cc(C(=O)O)c(=O)c2cnc(N3CCCC3)nc21` [Piromidic Acid], in the assay on cancer cell lines, the “inhibition effect on different cancer cell lines” value was “significant inhibition effect”. In addition, the viability at 10 µM in assay [1] (setting [37]) turned out to be 67.2%; in assay [2] (setting [38]), 80.5%; in [3] (setting [39]) it was 85.9%; in assay [4] (setting [40]), 100%; in assay [5] (setting [41]), 73.8%; in assay [6] (setting [30]) it was 95.2%. Further, the viability at 10 µM in assay [7] (setting [42]) stood at 86.7%; in assay [8] (setting [43]), 95.5%; in assay [9] (setting [44]), 107%; in assay [10] (setting [45]), 90.5%; in assay [11] (setting [46]), 99.5%; in assay [12] (setting [47]), 95.2%. The viability at 10 µM in [13] was found to be 89.8%.
For `CN(C)c1ccc(O)c2c1C[C@H]1C[C@H]3[C@H](N(C)C)C(O)=C(C(N)=O)C(=O)[C@@]3(O)C(O)=C1C2=O` [Minocycline HCl], in the assay with cancer cell lines, the “inhibition effect on different cancer cell lines” value was “significant inhibition effect”. Also, the viability at 10 µM was determined as 74% in assay [1] (setting [37]); 42.5% in assay [2] (setting [38]); 87.6% in assay [3] (setting [39]); 95% in assay [4] (setting [40]); 103% in assay [5] (setting [41]); 87.3% in assay [6] (setting [30]). Also, the viability at 10 µM was found to be 81.6% in assay [7] (setting [42]); 53.8% in assay [9] (setting [44]); 60.4% in assay [10] (setting [45]); 49.9% in assay [11] (setting [46]); 68.1% in assay [12] (setting [47]); 105% in assay [13].
On to `Cl.NCCc1ccc(O)c(O)c1` [Dopamine hydrochloride (Inotropin), Dopamine hydrochloride], for which the “inhibition effect on different cancer cell lines” value in the assay on cancer cell lines was “significant inhibition effect”. In addition, the viability at 10 µM was 76% in assay [1] (setting [14]); 102% in assay [2] (setting [15]); 74.3% in [3] (setting [16]); 85% in assay [4] (setting [17]); 84.3% in assay [6] (setting [18]); 83% in assay [7] (setting [19]). Moreover, the viability at 10 µM in assay [8] (setting [20]) came to 85.1%; in [9] (setting [21]) it was 115%; in assay [10] (setting [22]) it was 57.7%; in assay [11] (setting [23]), 148%; in assay [12] (setting [24]) it was 91.5%; in assay [13] it was 90.6%.
With `CCc1c(Cl)c(O)c(Cl)c(O)c1C(=O)O[C@H]1[C@H](O)[C@H](OC)[C@H](OC/C2=C\C=C\C[C@H](O)/C(C)=C/[C@H](CC)[C@@H](O[C@@H]3OC(C)(C)[C@@H](OC(=O)C(C)C)[C@H](O)[C@@H]3O)/C(C)=C/C(C)=C/C[C@@H]([C@@H](C)O)OC2=O)O[C@@H]1C` [Fidaxomicin], the “inhibition effect on different cancer cell lines” value in the assay on cancer cell lines was “significant inhibition effect”. Moreover, the viability at 10 µM is 61.2% in assay [1] (setting [37]); 40.6% in assay [2] (setting [38]); 94.9% in assay [3] (setting [39]); 94.2% in [4] (setting [40]); 99.6% in [5] (setting [41]); 89.6% in assay [6] (setting [30]). Also, the viability at 10 µM in [7] (setting [42]) turned out to be 70.3%; in [8] (setting [43]), 82.2%; in [9] (setting [44]) it was 59.4%; in assay [10] (setting [45]), 82.4%; in assay [11] (setting [46]) it was 46.6%; in assay [12] (setting [47]) it was 99.2%. In [13], the viability at 10 µM is 102%.
For the compound `CC(C)(O/N=C(\C(=O)N[C@@H]1C(=O)N2C(C(=O)[O-])=C(C[n+]3ccccc3)CS[C@H]12)c1csc(N)n1)C(=O)O` [Ceftazidime Pentahydrate], the “inhibition effect on different cancer cell lines” value with cancer cell lines is on record as “significant inhibition effect”. For the same compound, the viability at 10 µM came to 58.5% in assay [1] (setting [25]); 26.7% in [2] (setting [26]); 53.5% in assay [3] (setting [27]); 94.6% in [4] (setting [28]); 93.6% in assay [5] (setting [29]); 72.5% in assay [6] (setting [30]). Further, the viability at 10 µM in assay [7] (setting [31]) was determined as 87.7%; in assay [8] (setting [32]), 70%; in assay [9] (setting [33]), 38.5%; in [10] (setting [34]), 78.7%; in assay [11] (setting [35]), 35.5%; in assay [12] (setting [36]), 89.3%. Moreover, the viability at 10 µM in assay [13] is 89.5%.

For the origin of these results see patent US10105357B2, “Indication of antibiotic drugs for preparation of cancer inhibition pharmaceutical composition” (LAUNX BIOMEDICAL CO., LTD., priority 2014, dated 2018).
